Among the test systems are UACC-62 melanoma; OVCAR-3 ovarian; U251 CNS; UO-31 renal; HT29 colon; LOX IMVI melanoma; SW-620 colon; OVCAR-8 ovarian; ACHN renal; SK-MEL-2 melanoma.
What all share (experiment): NCI anticancer screen, dose series, 48 h

Values joined by “and” are separate entries in the source; they are usually repeats but may differ in a detail not shown here. Equal entries are not always repeated.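 How tested: cells in 96-well plates exposed to compound for 48 hours at five concentrations. GI50: concentration for 50% inhibition of growth. The concentration for full growth arrest is given as TGI.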

Turning to `COCCOCOC(C)(C)[C@H](CCO)O[Si](c1ccccc1)(c1ccccc1)C(C)(C)C`, the TGI is 28.3 µM in the experiment with UACC-62 melanoma; 22.2 µM in the experiment on OVCAR-3 ovarian; 24.5 µM with U251 CNS; 26.9 µM with UO-31 renal; 21.4 µM with HT29 colon; 23.3 µM in the experiment with LOX IMVI melanoma. Moreover, the TGI with SW-620 colon was determined as 25.2 µM; with OVCAR-8 ovarian, 23.5 µM; with ACHN renal, 18.9 µM.

For the compound `C/C(=N\NC(=S)Nc1ccc([N+](=O)[O-])cc1)c1nc2ncccc2[nH]1`, the TGI with OVCAR-3 ovarian is 17.7 µM; with U251 CNS it was 1.84 µM; with UO-31 renal, 1.35 µM; in the experiment on HT29 colon, 2.04 µM; in the experiment on SK-MEL-2 melanoma, 4.06 µM; in the experiment on SW-620 colon, more than 100 µM. Also, the TGI with OVCAR-8 ovarian amounted to 1.71 µM.

Take `c1ccc2cc3c(cc2c1)OP1(Oc2cccc4cccnc24)(O3)Oc2cc3ccccc3cc2O1`: the TGI was 9.39 µM in the experiment with UACC-62 melanoma; 5.45 µM in the experiment with OVCAR-3 ovarian; more than 100 µM in the experiment with U251 CNS; 20.1 µM with UO-31 renal; 12.6 µM with HT29 colon; 22.5 µM in the experiment on LOX IMVI melanoma. Also, the TGI in the experiment with SK-MEL-2 melanoma was 79.6 µM; in the experiment with SW-620 colon it was more than 50.2 µM; in the experiment on OVCAR-8 ovarian it was more than 57.1 µM.

Regarding `O=C1c2ccccc2C(=O)c2c1cc1c(c2[N+](=O)[O-])OCO1`, the GI50 in the experiment with OVCAR-3 ovarian was 1.43 µM; with U251 CNS it was 2.15 µM; in the experiment on UO-31 renal it was 1.54 µM; with HT29 colon, 4.24 µM; in the experiment with LOX IMVI melanoma, 1.43 µM; in the experiment on SK-MEL-2 melanoma, 2.56 µM. The values for the GI50 in the experiment with SW-620 colon, in the experiment on OVCAR-8 ovarian and with ACHN renal were 0.68 µM, 1.68 µM and 0.248 µM, respectively. Moreover, the TGI was 4.77 µM with OVCAR-3 ovarian; 7.72 µM with U251 CNS; 6.02 µM in the experiment with UO-31 renal; 22 µM in the experiment with HT29 colon; 4.92 µM in the experiment on LOX IMVI melanoma; 5.14 µM with SK-MEL-2 melanoma. For the same compound, the TGI turned out to be 11.5 µM in the experiment on SW-620 colon, 10.3 µM with OVCAR-8 ovarian and 1.3 µM with ACHN renal.

For the compound `C/C(N=NS(=O)(=O)c1ccc(C)cc1)=C1\C=CC=CN1O`, the TGI in the experiment on UACC-62 melanoma, with OVCAR-3 ovarian, with U251 CNS, in the experiment with UO-31 renal, with HT29 colon and in the experiment with SW-620 colon was more than 100 µM in each case. Also, the TGI in the experiment on OVCAR-8 ovarian and with ACHN renal was more than 100 µM throughout.

For the compound `O=C(O)CCCc1ccccc1`, the GI50 was more than 1000 µM with UACC-62 melanoma; 537 µM with OVCAR-3 ovarian; 292 µM and > 1000 µM in the experiment on U251 CNS; more than 1000 µM in the experiment on UO-31 renal; 221 µM and > 1000 µM with HT29 colon; 224 µM and > 1000 µM in the experiment on LOX IMVI melanoma. Further, the GI50 is 349 µM and > 1000 µM in the experiment with SK-MEL-2 melanoma; 333 µM and > 1000 µM in the experiment with SW-620 colon; 150 µM and 17.3 µM in the experiment on OVCAR-8 ovarian; 436 µM and > 1000 µM with ACHN renal. In addition, the TGI in the experiment with UACC-62 melanoma was 587 µM and > 1000 µM; with OVCAR-3 ovarian it was more than 1000 µM; in the experiment on U251 CNS, more than 1000 µM; in the experiment on UO-31 renal, 715 µM and > 1000 µM; in the experiment with HT29 colon, more than 1000 µM; with LOX IMVI melanoma, 898 µM and > 1000 µM. Further, the TGI was 932 µM and > 1000 µM in the experiment with SK-MEL-2 melanoma; more than 1000 µM in the experiment with SW-620 colon; more than 1000 µM with ACHN renal.

For the compound `Nc1n[nH]c(CCCCCCCc2nc(N)n[nH]2)n1`, the TGI with UACC-62 melanoma, in the experiment on OVCAR-3 ovarian, in the experiment on U251 CNS, with UO-31 renal, in the experiment on HT29 colon and in the experiment with LOX IMVI melanoma was more than 100 µM in each case. Further, the TGI in the experiment on SK-MEL-2 melanoma and in the experiment on ACHN renal was more than 100 µM each time.

For the compound `OC1COC(OCc2ccccc2)C(O)C1O` (stereo unspecified), the TGI with UACC-62 melanoma, in the experiment with OVCAR-3 ovarian, in the experiment with U251 CNS, in the experiment on UO-31 renal, with HT29 colon and in the experiment on LOX IMVI melanoma was more than 100 µM in each case. Also, the TGI in the experiment on SK-MEL-2 melanoma, with SW-620 colon, in the experiment with OVCAR-8 ovarian and with ACHN renal was more than 100 µM in each case.

Consider `O=C(O)CC12CC3CC(CC(O)(C3)C1)C2`, for which the TGI in the experiment on UACC-62 melanoma, with OVCAR-3 ovarian, in the experiment on U251 CNS, in the experiment with UO-31 renal, with HT29 colon and with LOX IMVI melanoma was more than 100 µM throughout. Moreover, the TGI with SK-MEL-2 melanoma, in the experiment with SW-620 colon, with OVCAR-8 ovarian and in the experiment on ACHN renal was more than 100 µM throughout.

Regarding `C=CCNC(=O)CN(CC(=O)OC)C1CCCCC1N(CC(=O)OC)CC(=O)OC` (stereo unspecified), the TGI in the experiment with UACC-62 melanoma, in the experiment with OVCAR-3 ovarian, in the experiment with U251 CNS, with UO-31 renal, in the experiment with HT29 colon and with LOX IMVI melanoma was more than 100 µM throughout. Besides, the TGI with SK-MEL-2 melanoma, in the experiment on SW-620 colon, with OVCAR-8 ovarian and in the experiment with ACHN renal was more than 100 µM throughout.

As for `CC(C)=CCC/C(C)=C/CCC1(C)C=Cc2c(c3ccccc3oc2=O)O1` (stereo unspecified), the TGI turned out to be 24 µM with UACC-62 melanoma; 32.7 µM in the experiment with OVCAR-3 ovarian; 28.8 µM with U251 CNS; 28.8 µM with UO-31 renal; 33.7 µM with HT29 colon; 32.4 µM in the experiment with LOX IMVI melanoma. The TGI with SK-MEL-2 melanoma is 31.4 µM; in the experiment with SW-620 colon, 33.7 µM; with OVCAR-8 ovarian, 30.3 µM.

As to `COc1cc(C(=O)C2CC3(CCC2(O)c2cc(OC)c(OC)c(OC)c2)CC(=O)Nc2ccccc2C3=O)cc(OC)c1OC` (stereo unspecified), the TGI with UACC-62 melanoma, in the experiment on OVCAR-3 ovarian, in the experiment with U251 CNS, in the experiment on UO-31 renal, in the experiment on HT29 colon and with LOX IMVI melanoma was more than 100 µM each time. Further, the TGI with SK-MEL-2 melanoma, in the experiment with SW-620 colon and in the experiment with OVCAR-8 ovarian was more than 100 µM throughout.

As for `Cc1cn(C2CC(O)C(Cn3nncc3Cn3ncc(=O)[nH]c3=O)O2)c(=O)[nH]c1=O` (stereo unspecified), the TGI with UACC-62 melanoma, with OVCAR-3 ovarian, with U251 CNS, in the experiment with UO-31 renal, in the experiment with LOX IMVI melanoma and in the experiment on SK-MEL-2 melanoma was more than 100 µM each time. The TGI in the experiment with SW-620 colon, in the experiment on OVCAR-8 ovarian and in the experiment on ACHN renal was more than 100 µM each time.

Turning to `COc1cc(/C=C/C2=C(C#N)C(=O)OC2(C)C)ccc1O`, the TGI was more than 100 µM with UACC-62 melanoma; more than 100 µM in the experiment with OVCAR-3 ovarian; 31.7 µM with U251 CNS; more than 100 µM with UO-31 renal; more than 100 µM with HT29 colon; 44.2 µM with LOX IMVI melanoma. The TGI in the experiment on SK-MEL-2 melanoma, in the experiment with SW-620 colon, with OVCAR-8 ovarian and with ACHN renal was more than 100 µM each time.

On to `Cc1cccc(CNc2ncnc3[nH]ncc23)c1`, for which the TGI in the experiment on UACC-62 melanoma, in the experiment with OVCAR-3 ovarian, with U251 CNS, with UO-31 renal, in the experiment on HT29 colon and in the experiment on LOX IMVI melanoma was more than 100 µM throughout. The TGI in the experiment with SK-MEL-2 melanoma, in the experiment with SW-620 colon, in the experiment on OVCAR-8 ovarian and in the experiment on ACHN renal was more than 100 µM throughout.

With `CC(C)=CC(=O)OC1C2C(C)=CC(O)C(O)C2(C)C2C3(O)OCC24C(CC(=O)OC14)C(C)C3O` (stereo unspecified), the TGI stood at 0.263 µM in the experiment on UACC-62 melanoma; 0.171 µM in the experiment on OVCAR-3 ovarian; 0.248 µM with U251 CNS; 8.57 µM in the experiment with UO-31 renal; 0.836 µM in the experiment with HT29 colon; 0.325 µM in the experiment on LOX IMVI melanoma. The TGI in the experiment with SK-MEL-2 melanoma was determined as 0.655 µM; in the experiment on SW-620 colon, 4.81 µM; in the experiment with OVCAR-8 ovarian it was 0.82 µM.

`O=C(O)C12CC3CC(C1)C2C=C3P(=O)(O)O` (stereo unspecified): the TGI in the experiment with UACC-62 melanoma, with OVCAR-3 ovarian, in the experiment on U251 CNS, in the experiment with UO-31 renal, in the experiment on HT29 colon and in the experiment on LOX IMVI melanoma was more than 100 µM throughout. Further, the TGI with SK-MEL-2 melanoma, in the experiment with SW-620 colon, in the experiment on OVCAR-8 ovarian and with ACHN renal was more than 100 µM throughout.

With `CC1SC(c2ccc(Cl)cc2)N(CCc2cccs2)C1=O` (stereo unspecified), the GI50 in the experiment with UACC-62 melanoma was 1.05 µM; in the experiment with OVCAR-3 ovarian, 1.42 µM; in the experiment on U251 CNS, 1.63 µM; in the experiment with HT29 colon, 1.48 µM; in the experiment with LOX IMVI melanoma, 1.23 µM; in the experiment with SK-MEL-2 melanoma, 1.36 µM. Besides, the GI50 in the experiment with SW-620 colon is 1.54 µM; in the experiment with OVCAR-8 ovarian, 1.93 µM; with ACHN renal it was 1.88 µM. Moreover, the TGI came to 2.35 µM with UACC-62 melanoma; 2.74 µM with OVCAR-3 ovarian; 3.18 µM in the experiment on U251 CNS; 3.14 µM in the experiment on HT29 colon; 2.49 µM in the experiment with LOX IMVI melanoma; 2.72 µM in the experiment with SK-MEL-2 melanoma. Moreover, the TGI with SW-620 colon came out at 3.22 µM; in the experiment with OVCAR-8 ovarian it was 4.08 µM; in the experiment with ACHN renal, 4.89 µM.

As for `Cc1c(C2=NN=C(N=Nc3c(O)cccc3O)/C2=C/c2ccccc2)c(=O)n(-c2ccccc2)n1C`, the TGI with UACC-62 melanoma, with OVCAR-3 ovarian, in the experiment with U251 CNS, in the experiment with UO-31 renal, in the experiment with HT29 colon and in the experiment on LOX IMVI melanoma was more than 100 µM throughout. The TGI in the experiment on SK-MEL-2 melanoma, with SW-620 colon and in the experiment with OVCAR-8 ovarian was more than 100 µM throughout.

As to `C=C1C2CCC3(CCC4C5(C)CCCC4(C=[N+](CCO)C5)C3C2)C1O` (stereo unspecified), the TGI in the experiment with UACC-62 melanoma, in the experiment on OVCAR-3 ovarian, in the experiment on U251 CNS, with UO-31 renal, in the experiment with HT29 colon and with LOX IMVI melanoma was more than 100 µM throughout. The TGI in the experiment with SK-MEL-2 melanoma, with SW-620 colon, in the experiment with OVCAR-8 ovarian and with ACHN renal was more than 100 µM throughout.

The values are drawn from PubChem BioAssay (NCI).
